Results reported in ChEMBL document CHEMBL1201862, “PubChem BioAssay data set” (2004).
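Grown in 96-well plates, cells were treated for 48 hours with each compound at five concentrations. Insufficient inhibition: endpoint recorded as highest concentration tested. The concentration for 50% growth inhibition is given as GI50.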 Activity calls are given as the source filed them. Rule as the data show it: active = GI50 up to about 1.1 µM and inactive = higher.

What was measured:
Assay in all cases: NCI tumour cell line growth inhibition, 48 h
[1] = tested on: SK-MEL-5
[2] = tested on: SF-295
[3] = tested on: M14
[4] = tested on: COLO 205
[5] = tested on: HOP-92
[6] = tested on: MDA-MB-231
[7] = tested on: SK-OV-3
[8] = tested on: HT-29
[9] = tested on: HCT-15
[10] = tested on: IGROV-1
[11] = tested on: T47D
[12] = tested on: Malme-3M
[13] = tested on: SN12C
[14] = tested on: DU-145
[15] = tested on: SK-MEL-28
[16] = tested on: NCI/ADR-RES
[17] = tested on: A549
[18] = tested on: SNB-19
[19] = tested on: BT-549
[20] = tested on: UACC-62

Compound	GI50 [1]	GI50 [2]	GI50 [3]	GI50 [4]	GI50 [5]	GI50 [6]	GI50 [7]	GI50 [8]	GI50 [9] [µM]	GI50 [10]	GI50 [11]	GI50 [12]	GI50 [13]	GI50 [14]	GI50 [15]	GI50 [16]	GI50 [17]	GI50 [18]	GI50 [19]	GI50 [20]
COc1ccc(Nc2c(C#N)c3n(c4ccccc24)c2ccccc2[n+]3C)cc1OC	3.49 µM (inactive)	2.77 µM (inactive)	2.94 µM (inactive)	2.19 µM (inactive)	9.44 µM (inactive)	1.73 µM (inactive)	5.14 µM (inactive)	3.13 µM (inactive)	1.88	3.58 µM (inactive)	6.05 µM (inactive)	3.82 µM (inactive)	1.27 µM (inactive)	2.81 µM (inactive)	4.43 µM (inactive)	2.71 µM (inactive)	3.03 µM (inactive)	3.92 µM (inactive)	7.33 µM (inactive)	3.15 µM (inactive)
CCOC(=O)N1N(c2ccccc2)C(=O)C1(c1ccccc1)c1ccccc1	33.8 µM (inactive)	99.1 µM (inactive)	> 100 µM (inactive)	80.9 µM (inactive)	70.3 µM (inactive)	> 100 µM (inactive)	> 100 µM (inactive)	22 µM (inactive)	> 100	> 100 µM (inactive)	18.9 µM (inactive)	97.7 µM (inactive)	> 100 µM (inactive)	> 100 µM (inactive)	> 100 µM (inactive)	> 100 µM (inactive)	> 100 µM (inactive)	> 100 µM (inactive)	> 100 µM (inactive)	> 100 µM (inactive)
O=C(Oc1cc(=O)c(OC(=O)c2ccccc2)co1)c1ccccc1	> 100 µM (inactive)	51.1 µM (inactive)	> 100 µM (inactive)	> 100 µM (inactive)	> 100 µM (inactive)	> 100 µM (inactive)	> 100 µM (inactive)	84.5 µM (inactive)	42.6	> 100 µM (inactive)	65.3 µM (inactive)	25.3 µM (inactive)	45.8 µM (inactive)	> 100 µM (inactive)	55.6 µM (inactive)	83.2 µM (inactive)	84.7 µM (inactive)	92.7 µM (inactive)	> 100 µM (inactive)	> 100 µM (inactive)
O=C1c2cc([N+](=O)[O-])cnc2S(=O)(=O)N1c1ccc(Br)cc1	> 100 µM (inactive)	> 100 µM (inactive)	> 100 µM (inactive)	> 100 µM (inactive)	> 100 µM (inactive)	> 100 µM (inactive)	> 100 µM (inactive)	> 100 µM (inactive)	> 100	> 100 µM (inactive)	> 100 µM (inactive)	> 100 µM (inactive)	> 100 µM (inactive)	> 100 µM (inactive)	> 100 µM (inactive)	> 100 µM (inactive)	> 100 µM (inactive)	> 100 µM (inactive)	> 100 µM (inactive)	> 100 µM (inactive)
N#Cc1c(NC(=S)NCc2ccccc2)sc2c1CCN(N1CCc3c(sc(NC(=S)NCc4ccccc4)c3C#N)C1)C2	> 100 µM (inactive)	> 100 µM (inactive)	> 100 µM (inactive)	> 100 µM (inactive)	> 100 µM (inactive)	> 100 µM (inactive)	> 100 µM (inactive)	> 100 µM (inactive)	> 100	> 100 µM (inactive)	> 100 µM (inactive)	> 100 µM (inactive)	> 100 µM (inactive)	> 100 µM (inactive)	> 100 µM (inactive)	> 100 µM (inactive)	> 100 µM (inactive)	> 100 µM (inactive)	> 100 µM (inactive)	> 100 µM (inactive)
CC1=NCC[N+]1(CCc1ccccc1)Cc1ccccc1 (stereo not given)	14.7 µM (inactive)	> 100 µM (inactive)	50.5 µM (inactive)	5.93 µM (inactive)	4.78 µM (inactive)	62.4 µM (inactive)	> 100 µM (inactive)	12.5 µM (inactive)	> 100	17.3 µM (inactive)	> 100 µM (inactive)	20.4 µM (inactive)	45.5 µM (inactive)	> 100 µM (inactive)	64.6 µM (inactive)	> 100 µM (inactive)	13.4 µM (inactive)	71.9 µM (inactive)	33.6 µM (inactive)	75.2 µM (inactive)
COc1cc(O)c2c(O)c3c(=O)oc(C)cc3c(OC)c2c1 [PAEPALANTINE]	25.2 µM (inactive)	27 µM (inactive)	32 µM (inactive)	19.2 µM (inactive)	16.1 µM (inactive)	28.4 µM (inactive)	24.5 µM (inactive)	21.2 µM (inactive)	28.3	27 µM (inactive)	32.4 µM (inactive)	21.4 µM (inactive)	24.1 µM (inactive)	41.6 µM (inactive)	25 µM (inactive)	19.6 µM (inactive)	25.8 µM (inactive)	39.3 µM (inactive)	34.8 µM (inactive)	21.9 µM (inactive)
O=C1O[C@H]2[C@H](OC(=O)c3cc(O)c(O)c(O)c3)[C@@H](OC(=O)c3cc(O)c(O)c4c3[C@@H]3C1=CC(=O)C(O)(O)C3(O)O4)[C@H](OC(=O)c1cc(O)c(O)c(O)c1)O[C@@H]2COC(=O)c1cc(O)c(O)c(O)c1 (stereo not given in full) [TERCHEBIN]	75.7 µM (inactive)	48.4 µM (inactive)	60.7 µM (inactive)	39.5 µM (inactive)	47.8 µM (inactive)	41.9 µM (inactive)	38.3 µM (inactive)	37.4 µM (inactive)	36.6	47.8 µM (inactive)	54.7 µM (inactive)	> 100 µM (inactive)	> 100 µM (inactive)	76 µM (inactive)	> 100 µM (inactive)	53.2 µM (inactive)	23.9 µM (inactive)	> 100 µM (inactive)	> 100 µM (inactive)	50.6 µM (inactive)
